Results: patent US7147872B2, “Environmentally compatible processes compositions and materials treated thereby” (Pimi Marion Holdings, Ltd., priority 1998, dated 2006)

System: potato seeds
Experiment: Dry fog treatment of potato seeds to prevent sprouting, H2O2 with Ag and Cu ion (Example 19)
Assay type: in vivo
Conditions: H2O2 500 PPM, Ag ion 0, Cu ion 0; 90% RH, 10° C.
Text: The results were as follows:

OO [H2O2, hydrogen peroxide]
Sprouting (%) one month: 8%
Sprouting (%) three months: 32%
Sprouting (%) two months: 22%
